We go through 24 compounds from publication PMC7918738, “Microtubule Destabilizing Sulfonamides as an Alternative to Taxane-Based Chemotherapy” (International Journal of Molecular Sciences, 2021).

In general, IC50 refers to the concentration at which inhibition is half-maximal. As a reminder, the solubility is the concentration that dissolves in the medium under given conditions. A higher solubility goes with a readily soluble substance.

The structures appear in SMILES notation. Converted amounts (≈) assume the structure as drawn.

Data set [1] has as its system HeLa (cervix epithelioid carcinoma). In words: Antiproliferative activity against HeLa (XTT colorimetric method). As to conditions: Homo sapiens, 72 h treatment. It counts as cell-based. On the procedure:
The in vitro antiproliferative activity of MDS at 1 µM after 72 h treatments was evaluated by a colorimetric method against the human tumor cell lines HeLa (cervix epithelioid carcinoma) and MCF7 (breast adenocarcinoma). Compounds showing more than 40% inhibition at 1 µM in at least three independent assays were evaluated in a range of concentrations between 0.1 nM and 10 µM for the determination of half-maximal inhibitory concentrations (IC50) (Table 1). Paclitaxel, CA-4, and ABT-751 were used as references.
MCF7 (human breast carcinoma), SKOV-3 (human ovarian carcinoma), OVCAR-3 (human ovarian carcinoma), OVCAR-8 (human ovarian carcinoma), and HeLa (human cervical carcinoma) cell lines were cultured in Dulbecco’s Modified Eagle’s Medium (DMEM) (Gibco, Thermo Fischer Scientific) containing 10% (v/v) heat-inactivated fetal bovine serum (HIFBS) (Lonza-Cambrex, Karlskoga, Sweden), 2 mM L-glutamine (Lonza-Cambrex, Karlskoga, Sweden), 100 μg/mL streptomycin, and 100 IU/mL penicillin (Lonza-Cambrex) at 37 °C in humidified 95% air and 5% CO2. HT-29 (human colon carcinoma), IGROV-1 (human ovarian carcinoma), and A2780 (human ovarian carcinoma) cell lines were cultured in RPMI 1640 medium (Gibco, Thermo Fischer Scientific) supplemented with 10% HIFBS, 100 μg/mL streptomycin, and 100 IU/mL penicillin at 37 °C in humidified 95% air and 5% CO2 atmosphere. The presence of mycoplasma was routinely checked with MycoAlert kit (Lonza-Cambrex) and only mycoplasma-free cells were used in the experiments. Ovarian tumor cell lines were originally acquired from Dr Atanasio Pandiella from Centro de Investigación del Cáncer (CIC), Salamanca, Spain. HeLa, HT-29 and MCF7 tumor cell lines were provided by Dr Faustino Mollinedo from Centro de Investigaciones Biológicas Margarita Salas, Madrid, Spain.
MCF7, HeLa, and HT-29 cell proliferation, when treated with the corresponding compounds, were determined using the XTT (sodium 3’-[1(phenylaminocarbonyl)-3,4-tetrazolium]-bis(4-methoxy-6-nitro)-benzenesulfonic acid hydrate) cell proliferation kit (Roche Molecular Biochemicals, Mannheim, Germany). A freshly prepared mixture of XTT labeling reagent with 0.02% (v/v) PMS (N-methyl-dibenzopyrazine methyl sulfate) electron coupling reagent was added to cells (50 µL/well in 96-well plates, total volume of 160 µL/well). Cells were incubated under standard culture conditions for 4 h (MCF7 and HeLa) or 6 h (HT-29). The absorbance of the formazan product generated was measured at 450 nm using a multi-well plate reader. SKOV-3, OVCAR-3, OVCAR-8, IGROV-1, A-2780 cell proliferation, when treated with the corresponding compound, were determined using MTT (3-(4,5-dimethylthiazol-2-yl)-2,5-diphenyl-2H-tetrazolium bromide) (Sigma-Aldrich, St. Louis, MO, USA). MTT in Phosphate Buffer Saline (PBS) (5 mg/ml) was added to cells (110 µL/well in 24-well plates, total volume of 1110 µL/well). After 1 hour of incubation, the medium was aspirated, and formazan violet crystals were dissolved in dimethyl sulfoxide (DMSO) (500 µL/well). Absorbance was measured at 570 nm in a plate reader (Ultra Evolution, Tecan, Männedorf, Suiza). To determine cell viability, cells in exponential growth phase were seeded (100 µL/well in 96-well plates and 1000 µL/well in 24-well plates) with appropriate cell line concentration (1.5·10^4 cells/mL for MCF7 and HeLa, 3·10^4 cells/mL for HT-29, and 1·10^4 cells/mL for SKOV-3, OVCAR-3, OVCAR-8, IGROV-1, and A-2780) in complete RPMI 1640 or DMEM medium at 37°C and 5% CO2 atmosphere. After 24 h incubation, to allow cells to attach to the plates, all compounds were added at 1 µM concentration and the effect on the proliferation was evaluated 72 h post-treatment. Compounds showing antiproliferative effects at tested concentration were selected for IC50 calculation (50% inhibitory concentration with respect to the untreated controls) from 10^−5 to 10^−10 M concentration. Non-linear curves fitting the experimental data were carried out for each compound. […]
(Formazan colour is commonly taken as a measure of viable cells.)

Data set [2] has as its system tubulin (microtubular protein isolated from calf brain). Kind of data set: Tubulin Polymerization Inhibition (TPI) assay, turbidity. It counts as biochemical. The conditions noted are these: 1.5 mg/mL microtubular protein; for TPI % 10 µM: compound at 10 µM. On the procedure: The effect of all the synthesized compounds on the in vitro tubulin polymerization was evaluated at 10 µM. All the compounds that inhibited polymerization more than 30% were also assayed at 20 µM. IC50 values were calculated for those compounds inhibiting tubulin polymerization by at least 50% at 20 µM (Table 1 and Supplemental Figure S2).
Microtubular protein was isolated from calf brain according to the modified Shelanski method by two cycles of temperature-dependent assembly/disassembly and stored at −80 °C. Before each use, protein concentration was determined by the Bradford method taking BSA as standard.
Tubulin polymerization was monitored using a Helios α spectrophotometer by measuring the increase in turbidity at 450 nm, caused by a shift from 4 °C to 37 °C, which allows the in vitro microtubular protein to depolymerize and polymerize, respectively. The assay was carried out in quartz cuvettes containing 1.5 mg/mL microtubular protein and the ligand (except for control cuvette with only DMSO at the same concentration) in a mixture of 0.1 M MES buffer, 1 mM EGTA, 1 mM MgCl2, 1 mM β-ME, and 1.5 mM GTP at pH 6.7 (final volume 500 µL). Cuvettes were preincubated at 20 °C for 30 min, to allow ligand binding to tubulin, and subsequently cooled on ice for 10 min. Then, the experiment starts at 4 °C to establish the initial baseline. The assembly process was initiated by a temperature shift to 37 °C and the turbidity produced by tubulin polymerization can be measured by an absorbance increase. After reaching a stable plateau, the temperature was switched back to 4 °C to return to the initial absorption values (to confirm the reversible nature of the monitored process and to determine whether or not the microtubular tubular protein has stabilized). The difference in amplitude between the stable plateau and the initial baseline of the curves was taken as the degree of tubulin polymerization for each experiment. Comparison with control curves under identical conditions but without ligands yielded TPI as a percentage value. All compounds were tested at 10 µM concentration. Compounds that inhibited tubulin polymerization by at least 30% at 10 µM were tested at 20 µM. IC50 values were calculated for compounds that inhibit tubulin polymerization by more than 50% at 20 µM. Compounds were dissolved in DMSO, and the final solvent concentration never exceeded 4% (v/v), which has been reported not to interfere with the assembly process. All the measurements were carried out in at least two independent experiments using microtubular protein from different preparations.

Data set [3] can be described thus: Aqueous solubility, saturation shake-flask method, UV absorbance. As to conditions: phosphate buffer, pH 7, aqueous buffer, thermodynamic from solid.
Procedure: UV absorbance at three maximum absorbance wavelengths of selected compounds was measured after 48 h shaking and subsequent microfiltration.
The aqueous solubility of the sulfonamides was determined using an approach based on the saturation shake-flask method. Tested compounds (1–2 mg) were stirred in pH 7.0 phosphate buffer (300 µL) for 48 h at room temperature. The resulting suspension was filtered over a 45 µm filter to discard insoluble residues, and the concentration in the supernatant was measured by UV absorbance. To determine the concentration, a scan between 270 and 400 nm was performed in a Helios-α UV-320 Spectrophotometer (Thermo-Spectronic, Thermo Fischer Scientific, Waltham, MA, USA) for each tested compound. Then, three maximum wavelengths of absorbance per compound were selected from the previous scan and calibration curves were performed at these three wavelengths. Solubility results are given as the average of the three measurements.

For the compound `COc1cc(N(Cc2ccccc2)S(=O)(=O)c2ccc(N(C)C)cc2)cc(OC)c1OC` [Compound 35a], the IC50 in data set [1] worked out at 330 nM; in data set [2] it was 5300 nM. Also, the “TPI % 10 µM” value in data set [2] turned out to be 72%.
Turning to `COc1ccc(S(=O)(=O)N(c2cc(OC)c(OC)c(OC)c2)S(=O)(=O)c2ccc(OC)cc2)cc1` [Compound 1b], the half-inhibitory concentration (IC50) in data set [1] was over 1000 nM; in data set [2], over 20000 nM. Also, in data set [2], the “TPI % 10 µM” value was 0%. This compound also returned a solubility at 48 h in data set [3] of 108 µg/mL (≈ 206 µM).
`COc1ccc(S(=O)(=O)N(Cc2ccccc2)c2cc(OC)c(OC)c(OC)c2)cc1` [Compound 9] showed a half-inhibitory concentration (IC50) in data set [1] of 750 nM. Moreover, in data set [2], the IC50 is over 20000 nM and the “TPI % 10 µM” value stood at 21%.
Turning to `CCN(c1cc(OC)c(OC)c(OC)c1)S(=O)(=O)c1ccc(N(C)C)cc1` [Compound 30], the IC50 in data set [1] was 66 nM; in data set [2] it was over 20000 nM. Also, the “TPI % 10 µM” value in data set [2] turned out to be 45%. In addition, in data set [3], the concentration in solution (solubility at 48 h) came to 6 µg/mL (≈ 15.2 µM).
Taken in the same sequence, the figures for `CCN(c1cc(OC)c(OC)c(OC)c1)S(=O)(=O)c1ccc(OC)c(N)c1` [Compound 43] were 38 nM, over 20000 nM, 37% and 58 µg/mL (≈ 146 µM).
With `CCOC(=O)CN(c1cc(OC)c(OC)c(OC)c1)S(=O)(=O)c1ccc(N(C)C)cc1` [Compound 33], the IC50 in data set [1] was 99 nM; in data set [2], over 20000 nM. For the same compound, in data set [2], the “TPI % 10 µM” value is 14%.
The compound `COc1ccc(S(=O)(=O)N(C(=O)OCc2ccccc2)c2cc(OC)c(OC)c(OC)c2)cc1` [Compound 10] yielded a concentration for half-maximal inhibition (IC50) in data set [1] of over 1000 nM. For the same compound, in data set [2], the IC50 is over 20000 nM and the “TPI % 10 µM” value is on record as 11%.
As for `CCOC(=O)CNc1cc(S(=O)(=O)N(C)c2cc(OC)c(OC)c(OC)c2)ccc1OC` [Compound 46], the figures for the IC50 in data set [1] and in data set [2] were 210 nM and over 20000 nM, respectively. Moreover, the “TPI % 10 µM” value in data set [2] turned out to be 13%.
`COc1cc(N(C(=O)OCc2ccccc2)S(=O)(=O)c2ccc(N(C)C)cc2)cc(OC)c1OC` [Compound 35b]: the IC50 was over 1000 nM in data set [1] and over 20000 nM in data set [2]. Moreover, the “TPI % 10 µM” value in data set [2] is 0%.
Compound `COc1ccc(/C=C\c2cc(OC)c(OC)c(OC)c2)cc1O` [Combretastatin A-4, reference compound] displayed an IC50 in data set [1] of 2 nM. In data set [2], half-maximal inhibition (IC50) required […] and the “TPI % 10 µM” value is on record as […].
On to `COc1ccc(S(=O)(=O)N(C)c2cc(OC)c(OC)c(OC)c2)cc1N(C)C` [Compound 48b], for which the IC50 in data set [1] was over 1000 nM. Besides, in data set [2], the IC50 is over 20000 nM and the “TPI % 10 µM” value was found to be 0%.
Take `COc1ccc(S(=O)(=O)Nc2cc(OC)c(OC)c(OC)c2[N+](=O)[O-])cc1` [Compound 11]: in data set [1], the IC50 is over 1000 nM. In data set [2], the IC50 is over 20000 nM and the “TPI % 10 µM” value was 10%. In data set [3], this compound showed a solubility at 48 h of 88 µg/mL (≈ 221 µM).
Compound `COc1ccc(S(=O)(=O)N(CC#N)c2cc(OC)c(OC)c(OC)c2)cc1` [Compound 6] showed an IC50 in data set [1] of 143 nM. In addition, in data set [2], the IC50 is over 20000 nM and the “TPI % 10 µM” value is reported as 0%. Further, the concentration in solution in data set [3] (solubility at 48 h) was 33 µg/mL (≈ 84.1 µM).
In data set [1], `COc1cc(N(C(C)=O)S(=O)(=O)c2ccc(N(C)C)cc2)cc(OC)c1OC` [Compound 31] came in with an IC50 of 183 nM. Also, in data set [2], the IC50 came to 14000 nM and the “TPI % 10 µM” value worked out at 38%. In data set [3], this compound returned a solubility at 48 h of 18 µg/mL (≈ 44.1 µM).
`COc1ccc(S(=O)(=O)Nc2cc(OC)c(OC)c(OC)c2N(C)C)cc1` [Compound 18]: the IC50 in data set [1] is over 1000 nM. Further, in data set [2], the IC50 was over 20000 nM and the “TPI % 10 µM” value is on record as 0%.
Taken in the same sequence, the figures for `COc1ccc(S(=O)(=O)N(CCBr)c2cc(OC)c(OC)c(OC)c2)cc1` [Compound 4] were 94 nM, over 20000 nM and 30%.
Taken in the same sequence, the figures for `CCOC(=O)CNc1cc(S(=O)(=O)N(CC(=O)OCC)c2cc(OC)c(OC)c(OC)c2)ccc1OC` [Compound 47] were over 1000 nM, over 20000 nM and 0%.
Taken in the same sequence, the figures for `COc1ccc(S(=O)(=O)N(C)c2cc(OC)c(OC)c(OC)c2N)cc1` [Compound 13] were over 1000 nM, over 20000 nM and 0%.
The compound `COc1ccc(S(=O)(=O)N(C)c2cc(OC)c(OC)c(OC)c2N(C)C)cc1` [Compound 19] returned an IC50 in data set [1] of over 1000 nM. Further, in data set [2], the IC50 was over 20000 nM and the “TPI % 10 µM” value came out at 0%.
In the case of `COc1ccc(S(=O)(=O)Nc2cc(OC)c(OC)c(OC)c2NC=O)cc1` [Compound 17], the IC50 in data set [1] is over 1000 nM; in data set [2], over 20000 nM. Also, the “TPI % 10 µM” value in data set [2] was 4%.
As to `COc1ccc(S(=O)(=O)Nc2cc(OC)c(OC)c(OC)c2NCN(c2cc(OC)c(OC)c(OC)c2N)S(=O)(=O)c2ccc(OC)cc2)cc1` [Compound 14], the IC50 in data set [1] is over 1000 nM. In addition, in data set [2], the IC50 is over 20000 nM and the “TPI % 10 µM” value turned out to be 0%.
Take `COc1ccc(S(=O)(=O)Nc2cc(OC)c(OC)c(OC)c2)cc1[N+](=O)[O-]` [Compound 40]: the values for the IC50 in data set [1] and in data set [2] were over 1000 nM and over 20000 nM, respectively. Also, the “TPI % 10 µM” value in data set [2] was 0%.
In the same order, the values of `COc1ccc(S(=O)(=O)n2cnc3c(OC)c(OC)c(OC)cc32)cc1` [Compound 24] are over 1000 nM, over 20000 nM and 0%.
In the case of `CNc1cc(S(=O)(=O)N(C)c2cc(OC)c(OC)c(OC)c2)ccc1OC` [Compound 48a], inhibition in data set [1] was half-maximal at 440 nM (IC50). For the same compound, in data set [2], the IC50 is over 20000 nM and the “TPI % 10 µM” value is listed as 2%.
